This note sets out measurements from US10251892B2, “Bicyclic heterocycles as FGFR4 inhibitors” (Incyte Corporation, priority 2015, dated 2019).

Some results are limits rather than exact numbers.

The target in the experiment is FGFR3 enzyme (Homo sapiens (Human), UniProt P22607). The experiment is described as follows: FGFR Enzymatic Assay (peptide phosphorylation, FRET), FGFR3. The format is biochemical. To be noted: IC50 ratio showing FGFR3 selectivity; pre-incubated for 4 hours. As for the experimental part: The inhibitor potency of the exemplified compounds was measured in an enzyme assay that measures peptide phosphorylation using FRET measurements to detect product formation. Inhibitors were serially diluted in DMSO and a volume of 0.5 μL was transferred to the wells of a 384-well plate.
FGFR3 enzyme, sequence (P22607 23-806): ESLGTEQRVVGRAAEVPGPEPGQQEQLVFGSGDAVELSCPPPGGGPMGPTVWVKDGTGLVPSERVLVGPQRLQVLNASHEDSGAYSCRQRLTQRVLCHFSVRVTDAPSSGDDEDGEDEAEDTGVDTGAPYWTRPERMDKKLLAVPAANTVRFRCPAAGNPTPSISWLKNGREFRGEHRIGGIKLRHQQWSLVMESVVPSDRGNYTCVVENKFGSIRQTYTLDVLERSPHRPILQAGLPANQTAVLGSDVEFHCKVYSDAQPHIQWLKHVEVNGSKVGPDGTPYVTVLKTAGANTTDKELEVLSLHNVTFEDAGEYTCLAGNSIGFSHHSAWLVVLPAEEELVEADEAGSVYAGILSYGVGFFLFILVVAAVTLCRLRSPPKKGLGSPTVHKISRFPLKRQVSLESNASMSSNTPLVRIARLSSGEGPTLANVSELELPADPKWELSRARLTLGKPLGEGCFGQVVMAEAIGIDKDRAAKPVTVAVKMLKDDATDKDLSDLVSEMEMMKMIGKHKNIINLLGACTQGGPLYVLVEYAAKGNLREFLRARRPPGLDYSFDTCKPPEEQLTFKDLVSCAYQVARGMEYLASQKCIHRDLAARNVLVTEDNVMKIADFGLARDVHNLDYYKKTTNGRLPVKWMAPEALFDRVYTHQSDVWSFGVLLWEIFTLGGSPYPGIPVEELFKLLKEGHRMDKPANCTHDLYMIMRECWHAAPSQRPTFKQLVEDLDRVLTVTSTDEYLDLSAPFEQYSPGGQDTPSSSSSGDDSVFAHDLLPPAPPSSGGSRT
GraphPad prism3 was used to analyze the data.
On to `COc1cc(OC)c(F)c(N2Cc3cnc(-c4cn(C)nc4C)cc3C3(CC3)C2=O)c1F` [Example 21, 2′-(2,6-difluoro-3,5-dimethoxyphenyl)-6′-(1,3-dimethyl-1H-pyrazol-4-yl)-1′,2′-dihydro-3′H-spiro[cyclopropane-1,4′-[2,7]naphthyridin]-3′-one], for which the FGFR1/FGFR3 is greater than 5. In the case of `COc1cc(OC)c(F)c(N2Cc3cnc(-c4cn(CCC#N)nc4C)cc3C3(CC3)C2=O)c1F` [Example 156, 3-(4-(2′-(2,6-difluoro-3,5-dimethoxyphenyl)-3′-oxo-2′,3′-dihydro-1′H-spiro[cyclopropane-1,4′-[2,7]naphthyridine]-6′-yl)-3-methyl-1H-pyrazol-1-yl)propanenitrile], the FGFR1/FGFR3 is greater than 5 and the FGFR4/FGFR3 was greater than 1. Turning to `CCN1C(=O)N(c2c(F)c(OC)cc(OC)c2F)Cc2cnc(-c3cccnc3)cc21` [Example 23, 3-(2,6-difluoro-3,5-dimethoxyphenyl)-1-ethyl-7-(pyridin-3-yl)-3,4-dihydropyrido[4,3-d]pyrimidin-2(1H)-one], the FGFR1/FGFR3 is given as greater than 5. On to `COc1cc(CN2C(=O)N(c3c(F)c(OC)cc(OC)c3F)Cc3cnc(-c4cn(C)nc4C)cc32)ccn1` [Example 58, 3-(2,6-difluoro-3,5-dimethoxyphenyl)-7-(1,3-dimethyl-1H-pyrazol-4-yl)-1-((2-methoxypyridin-4-yl)methyl)-3,4-dihydropyrido[4,3-d]pyrimidin-2(1H)-one], for which the FGFR1/FGFR3 is greater than 10 and the FGFR4/FGFR3 is listed as greater than 10. With `COc1cc(OC)c(F)c(N2Cc3cnc(-c4cn(C5CCN(C)C5)nc4C)cc3C3(CC3)C2=O)c1F` (stereo not shown) [Example 163, 2′-(2,6-difluoro-3,5-dimethoxyphenyl)-6′-(3-methyl-1-(1-methylpyrrolidin-3-yl)-1H-pyrazol-4-yl)-1′H-spiro[cyclopropane-1,4′-[2,7]naphthyridin]-3′(2′H)-one], the FGFR1/FGFR3 is greater than 3 and the FGFR4/FGFR3 is listed as greater than 3. Consider `COc1cc(OC)c(F)c(N2Cc3cnc(-c4cn(C)nc4C)cc3N(Cc3ccc4c(c3)OCCO4)C2=O)c1F` [Example 38, 3-(2,6-difluoro-3,5-dimethoxyphenyl)-1-((2,3-dihydrobenzo[b][1,4]dioxin-6-yl)methyl)-7-(1,3-dimethyl-1H-pyrazol-4-yl)-3,4-dihydropyrido[4,3-d]pyrimidin-2(1H)-one], for which the FGFR1/FGFR3 is recorded as greater than 5 and the FGFR4/FGFR3 is on record as greater than 5. On to `COc1cc(OC)c(F)c(N2Cc3cnc(-c4ccc(C5(C#N)CCC5)nc4)cc3N(c3ccncn3)C2=O)c1F` [Example 135, 1-(5-(3-(2,6-difluoro-3,5-dimethoxyphenyl)-2-oxo-1-(pyrimidin-4-yl)-1,2,3,4-tetrahydropyrido[4,3-d]pyrimidin-7-yl)pyridin-2-yl)cyclobutanecarbonitrile], for which the FGFR1/FGFR3 is given as greater than 5 and the FGFR4/FGFR3 was greater than 10.

Regarding `CCN1C(=O)N(c2c(F)c(OC)cc(OC)c2F)Cc2cnc(-c3cn(CC)nc3C)cc21` [Example 168, 3-(2,6-difluoro-3,5-dimethoxyphenyl)-1-ethyl-7-(1-ethyl-3-methyl-1H-pyrazol-4-yl)-3,4-dihydropyrido[4,3-d]pyrimidin-2(1H)-one], the FGFR1/FGFR3 was greater than 5 and the FGFR4/FGFR3 is greater than 3. For `COc1cc(OC)c(F)c(N2Cc3cnc(-c4ccncc4)cc3C3(CC3)C2=O)c1F` [Example 185, 2′-(2,6-difluoro-3,5-dimethoxyphenyl)-6′-(pyridin-4-yl)-1′H-spiro[cyclopropane-1,4′-[2,7]naphthyridin]-3′(2′H)-one], the FGFR1/FGFR3 is given as greater than 3 and the FGFR4/FGFR3 is greater than 3. Consider `CCN1C(=O)N(c2c(F)c(OC)cc(OC)c2F)Cc2cnc(-c3cn(CC(=O)N4CCOCC4)nc3C)cc21` [Example 51, 3-(2,6-difluoro-3,5-dimethoxyphenyl)-1-ethyl-7-(3-methyl-1-(2-morpholino-2-oxoethyl)-1H-pyrazol-4-yl)-3,4-dihydropyrido[4,3-d]pyrimidin-2(1H)-one], for which the FGFR1/FGFR3 is greater than 1 and the FGFR4/FGFR3 was greater than 1. `CNC(=O)c1ccc(-c2cc3c(cn2)CN(c2c(F)c(OC)cc(OC)c2F)C(=O)C32CC2)cc1` [Example 19, 4-(2′-(2,6-difluoro-3,5-dimethoxyphenyl)-3′-oxo-2′,3′-dihydro-1′H-spiro[cyclopropane-1,4′-[2,7]naphthyridine]-6′-yl)-N-methylbenzamide]: the FGFR1/FGFR3 was greater than 5. Consider `CCN1C(=O)N(c2c(F)c(OC)cc(OC)c2F)Cc2cnc(-c3ccc(C(=O)NC4CC4)nc3)cc21` [Example 176, N-cyclopropyl-5-(3-(2,6-difluoro-3,5-dimethoxyphenyl)-1-ethyl-2-oxo-1,2,3,4-tetrahydropyrido[4,3-d]pyrimidin-7-yl)picolinamide], for which the FGFR1/FGFR3 is recorded as greater than 10 and the FGFR4/FGFR3 is greater than 5. Regarding `COc1cc(OC)c(F)c(N2Cc3cnc(-c4cnn(CC5CN(C(C)=O)C5)c4)cc3C3(CC3)C2=O)c1F` [Example 167, 6′-(1-((1-acetylazetidin-3-yl)methyl)-1H-pyrazol-4-yl)-2′-(2,6-difluoro-3,5-dimethoxyphenyl)-1′H-spiro[cyclopropane-1,4′-[2,7]naphthyridin]-3′(2′H)-one], the FGFR1/FGFR3 was greater than 3 and the FGFR4/FGFR3 is reported as greater than 3. Take `COc1cc(OC)c(F)c(N2Cc3cnc(-c4cnn(CCN5CCOCC5)c4)cc3C3(CC3)C2=O)c1F` [Example 157, 2′-(2,6-difluoro-3,5-dimethoxyphenyl)-6′-(1-(2-morpholinoethyl)-1H-pyrazol-4-yl)-1′H-spiro[cyclopropane-1,4′-[2,7]naphthyridin]-3′(2′H)-one]: the FGFR1/FGFR3 is on record as greater than 5 and the FGFR4/FGFR3 is reported as greater than 3. For `COc1cc(OC)c(F)c(N2Cc3cnc(-c4cn(C)nc4C)cc3N(Cc3cc(C(C)C)on3)C2=O)c1F` [Example 93, 3-(2,6-difluoro-3,5-dimethoxyphenyl)-7-(1,3-dimethyl-1H-pyrazol-4-yl)-1-((5-isopropylisoxazol-3-yl)methyl)-3,4-dihydropyrido[4,3-d]pyrimidin-2(1H)-one] the same measures were greater than 5 and greater than 5. `COc1cnc(N2C(=O)N(c3c(F)c(OC)cc(OC)c3F)Cc3cnc(-c4cn(C)nc4C)cc32)cn1` [Example 112, 3-(2,6-difluoro-3,5-dimethoxyphenyl)-7-(1,3-dimethyl-1H-pyrazol-4-yl)-1-(5-methoxypyrazin-2-yl)-3,4-dihydropyrido[4,3-d]pyrimidin-2(1H)-one]: the FGFR1/FGFR3 is greater than 3 and the FGFR4/FGFR3 is recorded as greater than 5. For the compound `COc1cc(OC)c(F)c(N2Cc3cnc(-c4csc(N(C)C)n4)cc3C3(CC3)C2=O)c1F` [Example 160, 2′-(2,6-difluoro-3,5-dimethoxyphenyl)-6′-(2-(dimethylamino)thiazol-4-yl)-1′H-spiro[cyclopropane-1,4′-[2,7]naphthyridin]-3′(2′H)-one], the FGFR1/FGFR3 is recorded as greater than 5 and the FGFR4/FGFR3 is given as greater than 5. Turning to `COc1ccc(N2C(=O)N(c3c(F)c(OC)cc(OC)c3F)Cc3cnc(-c4cn(C)nc4C)cc32)cc1` [Example 104, 3-(2,6-difluoro-3,5-dimethoxyphenyl)-7-(1,3-dimethyl-1H-pyrazol-4-yl)-1-(4-methoxyphenyl)-3,4-dihydropyrido[4,3-d]pyrimidin-2(1H)-one], the FGFR1/FGFR3 is greater than 3 and the FGFR4/FGFR3 was greater than 5. The like results for `COc1cc(OC)c(F)c(N2Cc3cnc(-c4cn(C)nc4C)cc3N(c3ncccn3)C2=O)c1F` [Example 105, 3-(2,6-difluoro-3,5-dimethoxyphenyl)-7-(1,3-dimethyl-1H-pyrazol-4-yl)-1-(pyrimidin-2-yl)-3,4-dihydropyrido[4,3-d]pyrimidin-2(1H)-one] were, in that order, greater than 3 and greater than 5. For `CCNC(=O)c1ccc(-c2cc3c(cn2)CN(c2c(F)c(OC)cc(OC)c2F)C(=O)N3CC)cn1` [Example 175, 5-(3-(2,6-difluoro-3,5-dimethoxyphenyl)-1-ethyl-2-oxo-1,2,3,4-tetrahydropyrido[4,3-d]pyrimidin-7-yl)-N-ethylpicolinamide] the same measures were greater than 10 and greater than 5. The like results for `COc1cc(OC)c(F)c(N2Cc3cnc(-c4cn(C)nc4C)cc3N(C3CCCC3)C2=O)c1F` [Example 32, 1-cyclopentyl-3-(2,6-difluoro-3,5-dimethoxyphenyl)-7-(1,3-dimethyl-1H-pyrazol-4-yl)-3,4-dihydropyrido[4,3-d]pyrimidin-2(1H)-one] were, in that order, greater than 1 and greater than 5. For `COc1cc(OC)c(F)c(N2Cc3cnc(-c4ccccc4)cc3C3(CC3)C2=O)c1F` [Example 17, 2′-(2,6-difluoro-3,5-dimethoxyphenyl)-6′-phenyl-1′H-spiro[cyclopropane-1,4′-[2,7]naphthyridin]-3′(2′H)-one], the FGFR1/FGFR3 was greater than 10. Take `COc1cc(OC)c(F)c(N2Cc3cnc(-c4cn(C)nc4C)cc3N(Cc3ccc(F)c(F)c3)C2=O)c1F` [Example 73, 3-(2,6-difluoro-3,5-dimethoxyphenyl)-1-(3,4-difluorobenzyl)-7-(1,3-dimethyl-1H-pyrazol-4-yl)-3,4-dihydropyrido[4,3-d]pyrimidin-2(1H)-one]: the FGFR1/FGFR3 is listed as greater than 5 and the FGFR4/FGFR3 is greater than 10. For `COc1cc(OC)c(F)c(N2Cc3cnc(-c4cn(C)nc4C)cc3N(c3ccc(C#N)cn3)C2=O)c1F` [Example 79, 6-(3-(2,6-difluoro-3,5-dimethoxyphenyl)-7-(1,3-dimethyl-1H-pyrazol-4-yl)-2-oxo-3,4-dihydropyrido[4,3-d]pyrimidin-1(2H)-yl)nicotinonitrile] the same measures were greater than 5 and greater than 3. The like results for `COc1cc(OC)c(F)c(N2Cc3cnc(-c4cn(C)nc4C)cc3N(Cc3cnn(C)c3)C2=O)c1F` [Example 72, 3-(2,6-difluoro-3,5-dimethoxyphenyl)-7-(1,3-dimethyl-1H-pyrazol-4-yl)-1-((1-methyl-1H-pyrazol-4-yl)methyl)-3,4-dihydropyrido[4,3-d]pyrimidin-2(1H)-one] were, in that order, greater than 5 and greater than 10.
